Measured values taken from US4810699A, “Substituted 1,3,4,9-tetrahydropyrano[3,4,-b]indole-1-acetic acids, pharmaceutical compositions containing them, and methods for treating inflammatory conditions and for analgesic purposes using them” (American Home Products Corporation, priority 1987, dated 1989).

Columns and labels:
[1] = tested on: Adjuvant Edema; experiment: Preventative Adjuvant Edema; assay type: in vivo, Male Sprague Dawley rats; conditions: rat; for ED50: po, days 0, 1 and 2; for Preventative Adjuvant Edema, percent inhibition: p.o.
Procedure: This test is a primary screen for anti-inflammatory drugs.
Male Sprague Dawley rats (180-200 g) are used. The animals have free access to water but food is withdrawn 18 hours before testing.
Drug Preparations and Administration:
Freund's complete adjuvant is prepared by suspending 5 mg of killed and dried Mycobacterium butyricum (Difco) in 1 mL mineral oil. The test compound are dissolved, or suspended in 0.5% Tween 80 in distilled water according to their solubility. For primary screening all drugs are administered by gastric lavage at the arbitrary dosage of 25 mg/kg, p.o. in a volume of 0.5 mL/100 g body weight to groups of 10 animals.
The method is essentially that described by Wax et al, J. Pharmacol. Exp. Ther., 192, 166-171 (1975). Groups of rats are injected intradermally in the left hind paw with 0.1 mL of Freund's complete adjuvant. The test compound or vehicle is administered immediately before the adjuvant, 24 hours and 48 hours after the adjuvant (days 0, 1 and 2). The injected hind paw volume is measured before the injection of adjuvant and 24 hrs. after the last drug administration (day 3) by means of a plethysmometer (Buxco Electronics Inc.). The difference between the hind paw volume on day 0 and day 3 represents the edema volume. Etodolac (25 mg/kg, p.o.) is included as a positive control.
The mean edema volume (expressed as mL±SEM) is calculated for each group and the percentage protection conferred by the drug is calculated: [formula] where c is the mean edema volume for the vehicle-treated (0.5% Tween 80 in distilled water) controls and t is the mean edema volume for the drug treated group.

[2] = tested on: Phenylbenzoquinone-induced Writhing; experiment: Drug Effects on Phenylbenzoquinone-induced Writhing in Mice; assay type: in vivo, Male Swiss albino mice; conditions: mouse, p.o., 60 min before PBQ i.p.; for Phenylquinone Writhing in Mice, percent inhibition: dose 10 mg/kg; for ED50: po, read-out: Phenylquinone Writhing in Mice ED50
Procedure: A further test used to determine the utility of the compounds of the present invention is designated: Drug Effects on Phenylbenzoquinone-induced Writhing in Mice
The objective of this test is to determine the ability of test drugs to inhibit the nociceptive (pain) response of mice injected with a chemical irritant. This test is a primary screen for both peripheral and centrally acting analgesic drugs.
Male Swiss albino mice (15-25 g). The animals are fasted for 18 hours prior to use but have free access to water.
Drug Preparation and Administration:
Drugs are dissolved or suspended according to their solubility in 0.5% Tween 80 in distilled water. They are administered by gastric gavage in a volume of 5 mL/kg. For primary screening all drugs are administered at the arbitrary dosage of 25 mg/kg, p.o. to a group of 10 mice.
A modification of the method of Siegmund et al, Proc. Soc. Exp. Biol. Med., 95, 729-731 (1957) is used. Groups of 5 mice are dosed with the test compound or vehicle control. Sixty minutes later the animals are injected i.p. with 0.3 mL/20 g body weight of a 0.02% solution of phenylbenzoquinone (PBQ; 2-phenyl-1,4-benzoquinone) and placed in individual observation boxes. The number of writhing or abdominal squirming movements made by each mouse during the following 15 min. period is counted. The experiment is repeated with another group of 5 mice and the mean number of writhes per mouse for a group of 10 mice is calculated.
Drug treated and vehicle-treated control groups are compared and the percentage protection conferred by the drug is calculated: [formula] where c=mean number of writhes in the control group
t=mean number of writhes in the test drug group

In the case of `CCC1(CC(=O)O)OCCc2c1[nH]c1c(OCC(F)(F)F)ccc(C)c21` (stereo not drawn) [Example 1, 1-Ethyl-1,3,4,9-tetrahydro-5-methyl-8-(2,2,2-trifluoroethoxy)pyrano[3,4-b]indole-1-acetic Acid], the ED50 [1] is reported as 16.4 mg/kg and the “Phenylquinone Writhing in Mice, percent inhibition” value [2] is reported as 34%.
In the case of `CCC1(CC(=O)O)OCCc2c1[nH]c1c(OCC(F)(F)F)c(Cl)ccc21` (stereo not drawn) [Example 2, 7-Chloro-1-ethyl-1,3,4,9-tetrahydro-8-(2,2,2-trifluoroethoxy)pyrano[3,4-b]indole-1-acetic Acid], the “Preventative Adjuvant Edema, percent inhibition” value ([1]; dose 3 mg/kg) is reported as 50% and the ED50 [2] is reported as 77 mg/kg.
With `CCC1(CC(=O)O)OCCc2c1[nH]c1c(OCC(F)(F)F)ccc(F)c21` (stereo not drawn) [Example 3, 1-ethyl-5-fluoro-1,3,4,9-tetrahydro-8-(2,2,2-trifluoroethoxy)-pyrano[3,4-b]indole-1-acetic acid] the “Preventative Adjuvant Edema, percent inhibition” value ([1]; dose 25 mg/kg) was 70% and the “Phenylquinone Writhing in Mice, percent inhibition” value [2] was 18%.
With `CCC1(CC(=O)O)OCCc2c1[nH]c1c(OCC(F)(F)F)c(F)ccc21` (stereo not drawn) [Example 4, 7-fluoro-1-ethyl-1,3,4,9-tetrahydro-8-(2,2,2-trifluoroethoxy)-pyrano[3,4-b]indole-1-acetic acid] the “Preventative Adjuvant Edema, percent inhibition” value ([1]; dose 10 mg/kg) was 83% and the “Phenylquinone Writhing in Mice, percent inhibition” value [2] was 0%.
For `CCC1(CC(=O)O)OCCc2c1[nH]c1c(OC(C)C(F)(F)F)c(Cl)ccc21` (stereo not drawn) [Example 5, 7-chloro-1-ethyl-1,3,4,9-tetrahydro-8-(1-methyl-2,2,2-trifluoroethoxy)-pyrano[3,4-b]indole-1-acetic acid], the “Preventative Adjuvant Edema, percent inhibition” value ([1]; dose 25 mg/kg) was 41% and the “Phenylquinone Writhing in Mice, percent inhibition” value [2] was 31%.
With `CCC1(CC(=O)O)OCCc2c1[nH]c1c(OCC(F)(F)F)cccc21` (stereo not drawn) [Example 6, 1-Ethyl-1,3,4,9-tetrahydro-8-(2,2,2-trifluoroethoxy)pyrano[3,4-b]indole-1-acetic Acid] the ED50 [1] was 4.3 mg/kg and the ED50 [2] was > 200 mg/kg.
`C=CCOc1cccc2c3c([nH]c12)C(CC)(CC(=O)O)OCC3` (stereo not drawn) [Example 7, 1-ethyl-1,3,4,9-tetrahydro-8-[(2-propenyl)oxy]-pyrano[3,4-b]indole-1-aceticacid] was tested, and the “Preventative Adjuvant Edema, percent inhibition” value ([1]; dose 25 mg/kg) was 41% and the “Phenylquinone Writhing in Mice, percent inhibition” value [2] was 18%.
With `C#CCOc1cccc2c3c([nH]c12)C(CC)(CC(=O)O)OCC3` (stereo not drawn) [Example 8, 1-Ethyl-1,3,4,9-tetrahydro-8-[(2-propynyl)oxy]-pyrano[3,4-b]indole-1-aceticAcid] the “Preventative Adjuvant Edema, percent inhibition” value ([1]; dose 25 mg/kg) was 34%.
